US20230340491A1, “COMPOSITIONS AND METHODS FOR TREATING METABOLIC AND CARDIOVASCULAR DISEASES” (UNIVERSITY OF ROCHESTER, priority 2020, published 2023)

Tests used:
[1] = test system: WD-fed ApoE-/- mice
Procedure: To further test whether PKD3 inhibitor prevents NAFLD development, we first studied ApoE^−/− mice with Western diet (WD) induced HS, after 8 weeks on WD, we then treat the mice with PKD3 inhibitor by oral administration (low dose; 100 ug/10 g per day) on continue fed WD condition.

[2] = test system: C57BL/6NJ mice fed NASH diet; assay: NASH diet-induced NASH in C57BL/6NJ mice treated with PKD3 inhibitor; format: in vivo, mouse
From the text: The NASH diet D09100310, purchased from Research Diet, is a rodent diet with 40 kcal % Fat (mostly palm oil), 20 kcal % fructose and 2% cholesterol.
Furtherly, to investigate the therapeutic potential of PKD3 inhibitor against NASH, we devised an experimental approach to model advanced NAFLD. […] To explore potential mechanisms by which PKD3 inhibitor treatment protect against diet-induced NASH. We applied RNA sequencing of livers collected at endpoint.

[3] = test system: HFD-fed C57BL/6J mice; assay: HFD-induced obesity and NAFLD in C57BL/6J mice treated with CRT0066101; format: in vivo, mouse; conditions: 10 mg/kg/day oral
From the text: The mouse fat and liver tissues from the experimental mice were harvested after oral administration one and a half month.

[4] = 100 ug/10 g per day oral, vs vehicle
[5] = 100 ug/10 g per day oral, 6 weeks

CC[C@@H](N)CNc1ccnc(-c2cc(-c3cnn(C)c3)ccc2O)n1 [CRT0066101]
body fat (FIG. 3H-3K) [1, 4]: radically reduced | body weight at end-point (FIG. 3B) [1, 4]: decreased | liver weight (FIG. 3E) [1, 4]: decreased | fibrosis score (FIG. 3F) ([1]; H&E, Sirius Red, Oil Red O staining): alleviated | BAT (FIG. 3H-3K) ([1]; treat vs non-treat mice): no changes | GFAT (FIG. 3H-3K) ([1]; treat vs non-treat mice): no changes | hyperlipidemia, serum (FIG. 3G) ([1]; two months treatment): decreased | liver coloration (FIG. 3D) ([1]; yellowish coloration in vehicle mice): not any yellow color | BAT size and weight (FIG. 5I-5K) [2, 5]: reduction | NAS (FIG. 5G) [2, 5]: significantly decreased | gFAT size and weight (FIG. 5I-5K) [2, 5]: reduction | hepatic fibrosis (FIG. 5G) [2, 5]: significantly decreased | hepatomegaly induced by NASH diet [2, 5]: markedly attenuated | iFAT size and weight (FIG. 5I-5K) [2, 5]: reduction | liver fat (FIG. 5G) [2, 5]: significantly decreased | liver size (FIG. 5E-5F) [2, 5]: dramatically decreased | liver surface (FIG. 5E) [2, 5]: more smooth | liver weight (FIG. 5F) [2, 5]: dramatically decreased | nonfasting glucose (FIG. 5H) [2, 5]: most potent glucose-lowering effect | body weight at endpoint (FIG. 5C-5D) ([2]; 100 ug/10 g per day oral, 6 weeks, vs vehicle): reduced | body weight curve (FIG. 5B) ([2]; 12 weeks NASH diet, then 100 ug/10 g per day oral for 6 weeks on NASH diet, vs H2O): decreased | body weight at end-point (FIG. 2C-2D) ([3]; one and a half month, vs vehicle): dramatically decreased | liver weight (FIG. 2F) ([3]; vs vehicle): significantly reduced | running distance of physical exercise on treadmill (FIG. 2J) ([3]; vs vehicle): increased | serum alanine-aminotransferase (ALT) (FIG. 2I) ([3]; vs vehicle): decreased | serum aspartate aminotransferase (AST) (FIG. 2H) ([3]; vs vehicle): decreased | size of adipocytes (FIG. 2K) ([3]; vs vehicle): considerably diminished | weight of fat tissue (FIG. 2L-2N) ([3]; vs vehicle): considerably diminished | liver histology (FIG. 2G) ([3]; vehicle mice had ballooning, hepatocyte death, severe fibrosis, fatty liver): almost normal liver morphology, little hepatic ballooning and fibrosis as well as lipid deposits | fast blood glucose (FIG. 2R) ([3]; HFD-fed mice): decreased | glucose tolerance, OGTT (FIG. 2P) ([3]; HFD-fed mice): improved | insulin sensitivity, ITT (FIG. 2O) ([3]; HFD-fed mice): improved | non-fast blood glucose (FIG. 2Q) ([3]; HFD-fed mice): decreased
